Experiment: DPPH radical scavenging activity (antioxidant effect)
Assay type: biochemical
Details: 0.2 mM DPPH in methanol, 10 min at room temperature, absorbance 517 nm; compared with ascorbic acid (FIG. 1)
Procedure: The 1,1-diphenyl-2-picrylhydrazyl (DPPH) radical scavenging activities of the phenolic acid derivative compounds prepared in Examples 1-5 were measured to evaluate the antioxidant activities of the compounds against free radicals. Ascorbic acid was used as a positive control.
1,1-Diphenyl-2-picrylhydrazyl (DPPH) radical was purchased from Sigma Chemical Co. (USA) and L-ascorbic acid purchased from Sigma (USA) were used for testing.
100 μl of a 0.2 mM DPPH solution in methanol and 100 μl of each of the compounds at different concentrations were prepared in a 96-well plate. After the reaction was allowed to proceed at room temperature for 10 min, the absorbance of each sample was measured at 517 nm.

CCOC(=O)[C@H](Cc1ccccc1)NC(=O)c1cc(O)c(O)c(O)c1 [Example 1, (S)-ethyl-3-phenyl-2-(3,4,5-trihydroxybenzamido)propanoate]
DPPH radical scavenging activity (antioxidant activity): high activity compared to the control ascorbic acid

— US10696623B2, “Phenolic acid derivative compound and use thereof” (DAEBONG LS, LTD, priority 2015, dated 2020)
